Results published in PMC4448987, “A neuroligin-1-derived peptide stimulates phosphorylation of the NMDA receptor NR1 subunit and rescues MK-801-induced decrease in long-term potentiation and memory impairment” (Pharmacology Research & Perspectives, 2015).

How the values were obtained:
[1] = test system: hippocampal slices, CA3-CA1 synapse (fEPSP slope); assay: LTP in acute hippocampal slices from mice injected s.c.; format: in vivo, C57BL/6N mice; conditions: mice injected with neurolide-1 10 mg/kg s.c. 24 h and 1 h before sacrifice plus MK-801 0.1 mg/kg s.c.; slope 25-30 min after HFS vs before; mean ± SEM, n = 6
Method: Juvenile C57BL/6N mice of both sexes (postnatal day 16–24; Taconic, Ejby, Denmark) were injected subcutaneously (s.c.) with 10 mg/kg of the neurolide-1 peptide solution (10 mg/mL) and again 23 h later with 10 mg/kg of the neurolide-1 peptide solution (10 mg/mL) and 0.1 mg/kg MK-801 solution (0.025 mg/mL). Mice receiving the injection with the MK-801 solution only or untreated mice served as control groups. The young mice were rapidly and humanely euthanized with a minimum of distress by decapitation at a time point corresponding to 24 h after first injection. Preceding anesthetic was omitted to preserve the tissue free of drug residues and brain slice functions as unaltered as possible when performing the physiological measurements. After decapitation, the brain was removed. […]
Measurements were made in oxygenated aCSF at room temperature (1.1 mL/min). […] The field potential in the stratum radiatum of the CA1 area of the hippocampus was recorded with an extracellular glass microelectrode (4–6 MΩ, filled with aCSF), positioned at least 500 μm away from the stimulation electrode. […]

hippocampal slices (LTP) = assay: LTP in acute hippocampal slices, peptide added directly to aCSF; design: species or system mice; conditions: neurolide-1 alone, 1 µmol/L added to running artificial CSF during baseline before LTP induction
Method: Measurements were made in oxygenated aCSF at room temperature (1.1 mL/min). Schaeffer collaterals were stimulated with a bipolar concentric electrode (TM33CCNON; World Precision Instruments, Sarasota, FL). The field potential in the stratum radiatum of the CA1 area of the hippocampus was recorded with an extracellular glass microelectrode (4–6 MΩ, filled with aCSF), positioned at least 500 μm away from the stimulation electrode. The stimulus intensity was set 0.03 mA above the threshold. After a 30-min baseline was obtained with stimulation at 0.05 Hz, long-term potentiation (LTP) was induced by stimulating the Schaeffer collaterals at 100 Hz for 1 s four times at 20 s intervals. A new baseline was established over the following 30 min. Potentiation was estimated by comparing the rising slope of the field excitatory postsynaptic potential (fEPSP) before and 25–30 min after high-frequency stimulation.
Supplementary file prp20003-e00126-sd2.tif: Figure S1. Effect of neurolide-1 on LTP in acute hippocampal slices. Neurolide-1 at a concentration of 1 µmol/L was added directly to the running artificial CSF during baseline measurement before the induction of LTP.
Supplementary Figure S1. Effect of neurolide-1 on LTP in acute hippocampal slices. Neurolide-1 at a concentration of 1 µM was added directly to the running artificial CSF during baseline measurement before the induction of LTP.

adult male Wistar rats = assay: Social recognition test; format: in vivo; conditions: rat
Method: Social memory in animals reflects the ability to recognize conspecifics as familiar or unfamiliar. The social recognition test was performed basically as described previously (Secher et al. [2006]), (see Data S1). […] Rats were handled 5 days prior to the experiment and habituated to the transparent test cages for 1 h before start of experiment. The tests included three trials (T1–3), separated by intertribal periods of 2 and 24 h, with the test rat being introduced to a 3-week-old juvenile conspecific (40–50 g; Charles River) for 4 min each time. Investigative behavior was recorded and used to calculate recognition ratios (RR) as previously described (Kogan et al. [2000]). Retention periods longer than 1 h are believed to result in no or only minimal retention of social memory (Popik and van Ree [1998]; Secher et al. [2006]). Terminally, rats were rapidly and humanely rendered unconscious by concussive stunning and euthanized by cervical dislocation.
Social memory in animals reflects the ability of individuals to recognize conspecifics as familiar or unfamiliar. The animals were handled for 5 days prior to the experiments to minimize stress, habituated to the test cage, and trained to interact with a juvenile rat. Two groups of adult rats were used: a control group and a neurolide-1-treated group. Neurolide-1 (10 mg/kg) or vehicle (saline, 1 ml/kg) was injected subcutaneously (s.c.) two times, 24 and 2 h before the experiment. […] In the first trial, a 3-week-old juvenile male rat was introduced to the experimental adult rat for 4 min, and the time spent investigating the juvenile (e.g., licking, sniffing, chewing, and close following) was scored. Two hours later, a second trial was performed by reintroducing the same juvenile to the test rat to for 4 min, and investigative behavior was recorded. From the two trials, a recognition ratio (RR) was calculated as T2 / (T1 + T2), in which T1 and T2 were the times spent investigating the juvenile during the first and second trials, respectively. […]

Sequence: SEGNRWSNSTKGLFQRA [neurolide-1]
- increase of fEPSP slope after high-frequency stimulation (LTP) [1]: 57 ± 12%
- effect on LTP, direct treatment of hippocampal slices (hippocampal slices (LTP)): did not affect LTP
- long-term social memory, 24 h after the first trial (adult male Wistar rats; 10 mg/kg s.c. 24 and 1 h before first trial, n = 12): did not exhibit an improvement in social memory
- short-term social memory (recognition ratio), intertrial interval 2 h (adult male Wistar rats; 10 mg/kg s.c. 24 and 1 h before first trial, same juvenile, n = 12, P < 0.001 vs control): enhanced social memory
- recognition ratio with a new unfamiliar juvenile in the second trial (adult male Wistar rats; 10 mg/kg s.c. twice, control test, compared with vehicle group or theoretical value 0.5, n = 12): did not lead to a decrease in the RR
